Measured values as given in patent US20100099759A1, “AGRICULTURAL APPLICATIONS OF SILVER […]” (priority 2008, published 2010).
Where two headings read alike, the source gives them in different places.

System: Phakopsora pachyrhizi spores
Protocol: The leaves were examined with a stereoscope in order to identify those with a high degree of sporulation. Leaves were cut in standard size pieces.
Three different concentrations of SDC in distilled water were prepared having 5 ppm, 10 ppm and 15 ppm of silver, respectively. Ten ml of each solution was placed in separate test tubes. Ten selected pieces of soybean leaves were place in each test tube and stirred to suspend the spores present in the rust spots. The same procedure was used for a control, omitting the SDC in the solution. The leaves were left in the solution for two hours. For each of the product dilutions, ten Petri dishes containing water-agar substrate were inoculated with 100 spores each and maintained for 6 hours in the dark. Lactophenol dye was used to stain the mycelium growth, which was evaluated visually be microscope.
A second experiment was performed using the protocol above, with the following additions. Duplicate solutions were made using Well Water from Parana State, Southern Brazil (WW) and Product Water from Reverse Osmosis (PW). The surfactant sodium lauryl sulphate was added to each solution to a concentration of 0.01% w/w. Again, duplicate Petri dishes were inoculated with 100 spores for each concentration of SDC in the two water types and for […] the control.

Question: What does the source list for O=C(O)CC(O)(CC(=O)O)C(=O)[O-].[Ag+] [SDC, silver dihydrogen citrate]?
Answer: germination of spores from soybean leaves (summary in words) (5, 10 and 15 ppm silver in distilled water, well water and product water from reverse osmosis, with or without surfactant): almost totally inhibited; % Germination (first experiment, 5 ppm silver in distilled water, 2 h in solution, 6 h in the dark, control 16): 5.0%; % Germination (first experiment, 10 ppm silver in distilled water, 2 h in solution, 6 h in the dark, control 16): 4.0%; % Germination (first experiment, 15 ppm silver in distilled water, 2 h in solution, 6 h in the dark, control 16): 5.0%; % Germination (second experiment, 5 ppm, Product Water from Reverse Osmosis (PW), 0.01% w/w sodium lauryl sulphate, control 40): 1.6%; % Germination (second experiment, 5 ppm, Well Water (WW), 0.01% w/w sodium lauryl sulphate, control 40): 1.1%; % Germination (second experiment, 10 ppm, Product Water from Reverse Osmosis (PW), 0.01% w/w sodium lauryl sulphate, control 40): 0.4%; % Germination (second experiment, 10 ppm, Well Water (WW), 0.01% w/w sodium lauryl sulphate, control 40): 0.5%; % Germination (second experiment, 15 ppm, Product Water from Reverse Osmosis (PW), 0.01% w/w sodium lauryl sulphate, control 40): 0.5%; % Germination (second experiment, 15 ppm, Well Water (WW), 0.01% w/w sodium lauryl sulphate, control 40): 0.2%
